# Read-outs that look alike come from different tables or passages of the source.
# Target: T1, Human Cav3.1 calcium channel (Homo sapiens, UniProt O43497)
# T1 construct: expressed in transfected cells; host or cells: HEK-293 natClytin/TASK1+Cav3.1 cell line
# Assay: Human Cav3.1 calcium channel patch clamp assay (SyncroPatch 384PE; single point and IC50, voltage dependent block)
# Type: cell-based
# Details: for % Inhibition (Single Point Data): Testing Conc 1.25, patch clamp
# Summary of the method: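 Automated whole-cell patch clamp at room temperature, cells held at −120 mV; 100 ms step to −20 mV (resting block), then 1600 ms at −65 mV and a second −20 mV step (voltage-dependent block), every 15 s. Peak currents averaged over last 3 sweeps; % inhibition relative to nickel-sensitive current.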
# [1] = HEK-293 natClytin/TASK1+Cav3.1 cell line
# [2] = voltage dependent block (VDB), HEK-293 natClytin/TASK1+Cav3.1 cell line, read-out: Cav3.1 IC50
# T1 sequence (O43497 whole entry): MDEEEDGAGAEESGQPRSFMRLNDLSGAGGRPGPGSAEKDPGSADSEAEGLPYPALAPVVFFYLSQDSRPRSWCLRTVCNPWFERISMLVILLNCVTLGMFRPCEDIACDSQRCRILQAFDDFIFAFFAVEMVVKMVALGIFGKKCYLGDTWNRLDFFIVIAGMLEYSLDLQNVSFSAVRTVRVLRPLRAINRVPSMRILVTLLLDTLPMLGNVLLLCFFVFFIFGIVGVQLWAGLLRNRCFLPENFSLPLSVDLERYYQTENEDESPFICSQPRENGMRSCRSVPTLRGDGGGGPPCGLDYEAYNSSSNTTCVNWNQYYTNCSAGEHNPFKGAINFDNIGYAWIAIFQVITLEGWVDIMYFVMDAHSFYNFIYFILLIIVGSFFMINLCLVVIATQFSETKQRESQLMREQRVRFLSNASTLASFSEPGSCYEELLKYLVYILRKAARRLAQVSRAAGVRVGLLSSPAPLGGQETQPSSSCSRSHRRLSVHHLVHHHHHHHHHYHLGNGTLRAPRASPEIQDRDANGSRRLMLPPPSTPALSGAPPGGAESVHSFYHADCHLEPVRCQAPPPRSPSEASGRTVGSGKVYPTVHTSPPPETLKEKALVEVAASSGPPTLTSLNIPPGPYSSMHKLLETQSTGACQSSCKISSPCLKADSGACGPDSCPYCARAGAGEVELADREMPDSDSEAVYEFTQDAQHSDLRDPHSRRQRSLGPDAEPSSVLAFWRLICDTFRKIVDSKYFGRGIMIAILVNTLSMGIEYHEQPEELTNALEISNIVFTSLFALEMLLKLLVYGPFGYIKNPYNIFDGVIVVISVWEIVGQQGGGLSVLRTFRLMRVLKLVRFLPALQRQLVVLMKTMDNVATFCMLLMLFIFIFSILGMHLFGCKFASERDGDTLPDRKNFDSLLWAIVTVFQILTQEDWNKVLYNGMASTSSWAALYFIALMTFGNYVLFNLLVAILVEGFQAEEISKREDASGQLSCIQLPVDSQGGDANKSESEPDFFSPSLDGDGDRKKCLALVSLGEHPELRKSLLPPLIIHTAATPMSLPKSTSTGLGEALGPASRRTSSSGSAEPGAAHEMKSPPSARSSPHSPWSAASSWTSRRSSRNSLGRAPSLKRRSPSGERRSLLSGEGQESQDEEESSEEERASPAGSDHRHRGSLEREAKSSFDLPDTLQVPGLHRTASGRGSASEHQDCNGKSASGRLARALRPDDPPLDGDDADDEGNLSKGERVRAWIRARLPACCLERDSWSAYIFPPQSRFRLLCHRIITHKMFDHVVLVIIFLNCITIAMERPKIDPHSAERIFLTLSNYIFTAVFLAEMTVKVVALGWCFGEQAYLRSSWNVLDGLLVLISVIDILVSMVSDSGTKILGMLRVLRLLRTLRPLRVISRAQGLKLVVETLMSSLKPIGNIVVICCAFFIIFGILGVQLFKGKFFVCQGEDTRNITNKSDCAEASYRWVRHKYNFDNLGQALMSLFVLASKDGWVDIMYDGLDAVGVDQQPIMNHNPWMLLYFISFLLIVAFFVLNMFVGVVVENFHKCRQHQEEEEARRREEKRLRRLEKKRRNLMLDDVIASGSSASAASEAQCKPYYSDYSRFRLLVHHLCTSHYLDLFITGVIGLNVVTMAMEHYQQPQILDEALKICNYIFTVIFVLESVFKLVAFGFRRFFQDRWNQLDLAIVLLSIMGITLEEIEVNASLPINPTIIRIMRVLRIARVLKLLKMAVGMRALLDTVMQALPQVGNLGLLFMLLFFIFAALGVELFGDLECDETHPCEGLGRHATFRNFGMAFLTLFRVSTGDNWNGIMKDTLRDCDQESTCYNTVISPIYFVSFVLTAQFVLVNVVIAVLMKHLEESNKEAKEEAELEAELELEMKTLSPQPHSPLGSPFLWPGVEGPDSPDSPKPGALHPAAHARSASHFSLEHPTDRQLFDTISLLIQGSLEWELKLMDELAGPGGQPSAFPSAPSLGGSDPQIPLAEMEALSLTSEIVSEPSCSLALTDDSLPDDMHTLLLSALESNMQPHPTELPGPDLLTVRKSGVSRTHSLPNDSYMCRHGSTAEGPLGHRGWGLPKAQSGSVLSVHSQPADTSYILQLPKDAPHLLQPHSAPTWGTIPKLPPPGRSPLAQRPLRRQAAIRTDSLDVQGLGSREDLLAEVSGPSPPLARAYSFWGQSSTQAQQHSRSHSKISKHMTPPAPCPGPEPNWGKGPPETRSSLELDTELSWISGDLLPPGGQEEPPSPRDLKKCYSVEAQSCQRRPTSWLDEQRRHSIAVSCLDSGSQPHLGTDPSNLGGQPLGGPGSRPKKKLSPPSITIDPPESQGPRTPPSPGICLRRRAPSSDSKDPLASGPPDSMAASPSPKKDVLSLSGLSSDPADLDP
SMILES,% Inhibition (Single Point Data) [1],IC50 [2],IC50
Fc1ccc(Cl)c2nc(CN3CCN(CC4(F)CCC(F)(F)CC4)CC3)[nH]c12 [Compound 155],80.753%,0.37 µM,
OC(CN1CCN(Cc2nc3c(Cl)ccc(F)c3[nH]2)CC1)C1CCCCC1 (centres unmarked) [Compound 156],86.133%,,
Cc1cccc2[nH]c(CN3CC4CC(C3)N4CCC3CCC(F)(F)CC3)nc12 [Compound 157],79.835%,0.297 µM,
COc1cc(F)cc2[nH]c(CN3CC4CC(C3)N4CCC3CCC(F)(F)CC3)nc12 [Compound 158],92.557%,0.148 µM,
OC1(CN2CCN(Cc3nc4c(Cl)ccc(F)c4[nH]3)CC2)CCC(F)(F)CC1 [Compound 159],76.669%,0.25 µM,
Fc1cc(Cl)c2nc(CN3CCN(CC(F)(F)C4CCCC4)CC3)[nH]c2c1 [Compound 160],73.495%,0.652 µM,
Fc1ccc(Cl)c2nc(CN3CCN(CC(F)C4CCCCC4)CC3)[nH]c12 (centres unmarked) [Compound 161],95.402%,< 0.0782 µM,
Fc1cc(Cl)c2nc(CN3CCN(CC(F)(F)C4CCCCC4)CC3)[nH]c2c1 [Compound 162],73.357%,0.416 µM,
Fc1ccc(Cl)c2nc(CN3CCN(CC(F)(F)C4CCCC4)CC3)[nH]c12 [Compound 163],54.884%,0.671 µM,
COc1cc(F)cc2[nH]c(CN3CC4CC(C3)N4CC(=O)NC(C)(C)C)nc12 [Compound 164],84.695%,,
CC(C)(C)NC(=O)CN1C2CC1CN(Cc1nc3c(F)ccc(F)c3[nH]1)C2 [Compound 165],87.314%,,
CC(C)(NC(=O)CN1C2CC1CN(Cc1nc3c(F)ccc(F)c3[nH]1)C2)C(F)(F)F [Compound 166],87.157%,0.253 µM,
Fc1cc(Cl)c2nc(CN3CC4CC(C3)N4CC(F)(F)C3CCCCC3)[nH]c2c1 [Compound 167],79.996%,0.381 µM,
O=S(=O)(CCN1C2CC1CN(Cc1nc3c(Cl)ccc(F)c3[nH]1)C2)c1ccccc1 [Compound 168],66.949%,0.711 µM,
Fc1cc(Cl)c2nc(CN3CC4CC(C3)N4CC(F)C3CCCCC3)[nH]c2c1 (centres unmarked) [Compound 169],84.629%,0.297 µM,
O=C(CN1CC2CC(C1)N2CC(=O)NC1(C(F)(F)F)CC1)Nc1cc(F)cc(Cl)c1 [Compound 170],96.908%,,
O=C(CN1CC2CC(C1)N2CCS(=O)(=O)c1ccccc1)Nc1cc(F)cc(Cl)c1 [Compound 171],34.047%,1.42 µM,
CC(C)(CCN1C2CC1CN(Cc1nc3c(Cl)cc(F)cc3[nH]1)C2)C(F)(F)F [Compound 172],94.964%,,
CC(C)(C)NC(=O)CN1C2CC1CN(Cc1nc3c(OC(F)F)ccc(F)c3[nH]1)C2 [Compound 173],94.854%,,< 0.0782 µM
CC1(NC(=O)CN2C3CC2CN(Cc2nc4c(Cl)ccc(F)c4[nH]2)C3)COC1 [Compound 174],75.268%,,
COc1ccc(F)c2[nH]c(CN3CC4CC(C3)N4CC(=O)NC(C)(C)C)nc12 [Compound 175],89.419%,0.147 µM,

SMILES,% Inhibition (Single Point Data) [1],IC50 [2],IC50
Fc1ccc(Cl)c2nc(CN3CC4CC(C3)N4CC(F)(F)C3CCCCC3)[nH]c12 [Compound 176],83.015%,0.128 µM,
Cc1ccc(C#N)c2nc(CN3CC4CC(C3)N4CC(=O)NC(C)(C)C)[nH]c12 [Compound 177],87.595%,,
N#CC1(CN2C3CC2CN(Cc2nc4c(Cl)ccc(F)c4[nH]2)C3)CCCCC1 [Compound 178],43.012%,1.39 µM,
N#CC1(CN2C3CC2CN(Cc2nc4c(Cl)ccc(F)c4[nH]2)C3)CCC(F)(F)CC1 [Compound 179],32.612%,1.97 µM,
O=C(CN1C2CC1CN(Cc1nc3c(Cl)ccc(F)c3[nH]1)C2)NC1(C(F)(F)F)COC1 [Compound 180],82.621%,,
CC(C)(NC(=O)CN1C2CC1CN(Cc1nc3c(Cl)ccc(F)c3[nH]1)C2)C(F)(F)F [Compound 181],102.49%,,0.0423 µM
O=C(CN1C2CC1CN(Cc1nc3c(Cl)cc(F)cc3[nH]1)C2)NC1(C(F)(F)F)COC1 [Compound 182],92.993%,,0.0648 µM
COc1ccc(F)c2[nH]c(CN3CC4CC(C3)N4CC(=O)NC(C)(C)C(F)(F)F)nc12 [Compound 183],95.323%,,0.0874 µM
CC(C)(NC(=O)CN1C2CC1CN(Cc1nc3c(OC(F)F)ccc(F)c3[nH]1)C2)C(F)(F)F [Compound 184],86.326%,0.2 µM,
"CC(C)(C)NC(=O)CN1C2CCC1CN(Cc1nc3c(Cl)ccc(F)c3[nH]1)C2 [Compound 185, N-tert-butyl-2-[3-[(4-chloro-7-fluoro-1H-benzimidazol-2-yl)methyl]-3,8-diazabicyclo[3.2.1]octan-8-yl]acetamide]",99.412%,,< 0.0782 µM
CC(C)(C)NC(=O)CN1C2CCC1CN(Cc1ncc3ccccc3n1)C2 [Compound 186],5.7091%,,
Cc1ccnc2[nH]c(CN3CC4CCC(C3)N4CC(=O)NC(C)(C)C)nc12 [Compound 187],46.159%,1 µM,
CC(C)(C)NC(=O)CN1C2CCC1CN(Cc1nc3ccccc3[nH]1)C2 [Compound 188],75.55%,0.485 µM,
CC(C)(C)NC(=O)CN1C2CCC1CN(Cc1nc3c(Cl)cccc3[nH]1)C2 [Compound 189],92.283%,,< 0.0782 µM
Cc1cc(F)cc2[nH]c(CN3CC4CCC(C3)N4CC(=O)NC(C)(C)C)nc12 [Compound 190],94.944%,0.21 µM,
CC(C)(C)NC(=O)CN1C2CCC1CN(Cc1nc3c(Cl)cc(C#N)cc3[nH]1)C2 [Compound 191],97.531%,,
COc1cccc2[nH]c(CN3CC4CCC(C3)N4CC(=O)NC(C)(C)C)nc12 [Compound 192],76.034%,0.334 µM,
CC(C)(C)NC(=O)CN1C2CCC1CN(Cc1nc3cc(F)cc(Cl)c3o1)C2 [Compound 193],23.525%,2.2 µM,
Cc1cccc2[nH]c(CN3CC4CCC(C3)N4CC(=O)NC(C)(C)C)nc12 [Compound 194],97.438%,,
CC(C)(C)NC(=O)CN1C2CCC1CN(CCc1nc3c(Cl)cc(F)cc3[nH]1)C2 [Compound 195],44.852%,1.15 µM,
CC(C)(C)NC(=O)CN1C2CCC1CN(Cc1nc(-c3ccccc3)c[nH]1)C2 [Compound 196],83.677%,,

SMILES,% Inhibition (Single Point Data) [1],IC50 [2],IC50
CC(C)(C)NC(=O)CN1C2CCC1CN(Cc1c[nH]c(-c3ccccc3)n1)C2 [Compound 197],45.013%,1.54 µM,
Cc1cccc2[nH]c(C(C)N3CC4CCC(C3)N4CC(=O)NC(C)(C)C)nc12 (centres unmarked) [Compound 198],71.858%,0.415 µM,
Cc1cccc2[nH]c(C(C)N3CC4CC(C3)N4CC(=O)NC(C)(C)C)nc12 (centres unmarked) [Compound 199],54.078%,0.864 µM,
CC(c1nc2c(Cl)cc(F)cc2[nH]1)N1CC2CC(C1)N2CC(=O)NC(C)(C)C (centres unmarked) [Compound 200],93.175%,,
CC(c1nc2c(Cl)cc(F)cc2[nH]1)N1CC2CCC(C1)N2CC(=O)NC(C)(C)C (centres unmarked) [Compound 201],95.763%,,0.0842 µM
CC(C)(C)NC(=O)CN1C2CCC1CN(Cc1nc3c(C(F)F)cccc3[nH]1)C2 [Compound 202],100.89%,,
CC(C)(C)NC(=O)CN1C2CCC1CN(Cc1nc3c(C4CC4)cccc3[nH]1)C2 [Compound 203],94.049%,,
Cc1cccc2[nH]c(CN3CC4CC(C3)N4CCC3CCOCC3)nc12 [Compound 204],3.6634%,,
Cc1cc(F)cc2[nH]c(CN3CC4CC(C3)N4CCC3CCOCC3)nc12 [Compound 205],16.681%,4.68 µM,
COc1ccc(Cl)c2nc(CN3CC4CC(C3)N4CC(=O)NC(C)(C)C)[nH]c12 [Compound 206],95.576%,0.156 µM,
Cc1ccc(F)c2[nH]c(CN3CC4CC(C3)N4CC(=O)NC(C)(C)C)nc12 [Compound 207],97.657%,0.121 µM,
COc1cccc(NC(=O)CN2CC3CC(C2)N3CC(=O)NC(C)(C)C)c1 [Compound 208],51.139%,1.01 µM,
CC(C)(C)NC(=O)CN1C2CC1CN(c1nc3c(Cl)cc(F)cc3[nH]1)C2 [Compound 209],24.65%,5.09 µM,
CC(C)(C)NC(=O)CN1C2CC1CN(C(=O)c1nc3c(Cl)cc(F)cc3[nH]1)C2 [Compound 210],,1.91 µM,
COc1cc(F)cc(NC(=O)CN2CC3CC(C2)N3CC(=O)NC(C)(C)C)c1 [Compound 211],81.284%,0.233 µM,
CC(C)(C)NC(=O)CN1C2CC1CN(CC(=O)Nc1cc(F)ccc1Cl)C2 [Compound 213],27.718%,,
Cc1cc(F)cc(NC(=O)CN2CC3CC(C2)N3CC(=O)NC(C)(C)C)c1 [Compound 215],100%,,
CC(C)(C)NC(=O)CN1C2CC1CN(CC(=O)Nc1ccc(F)c(Cl)c1)C2 [Compound 216],97.034%,,
Cc1ccc(Cl)c2nc(CN3CC4CC(C3)N4CC(=O)NC(C)(C)C)[nH]c12 [Compound 217],100.76%,,

# — patent US20250213558A1, “T-TYPE CALCIUM CHANNEL MODULATORS COMPRISING A PIPERAZINE OR 1,4-DIAZEPANE CORE AND METHODS OF USE THEREOF” (Praxis Precision Medicines, Inc., priority 2022, published 2025)
